# Experimental data published in patent publication US20100081630A1, “Heparin Compositions and Selectin Inhibition” (University of California, priority 2005, published 2010).
# Legend:
# B16F1 cells = experiment: Melanoma experimental metastasis assay; type: in vivo, mouse; conditions: 1× dose s.c. 30 min before i.v. B16F1 cells; day 17
# Protocol: FIG. 4 depicts heparins with selectin-inhibitory activity that inhibit metastasis of melanoma cells. Mice were injected subcutaneously with “1×” heparin (A) or “3×” heparin (B) (or PBS as a control), and 30 minutes later were injected intravenously with B16F1 cells. After 17 days, mice were euthanized, lungs perfused with formalin through the trachea and then allowed to fix in formalin for a minimum of 24 hours. Metastasis was quantified by measuring lung weight, which correlated well with the physical appearance of the lungs, documented by photography (representative pictures are shown below quantification). Open circles each represent one mouse and horizontal bars represent mean lung weights. P-values were determined by a Student's T-test, assuming two-tailed, unequal distribution.
# Melanoma Experimental Metastasis Assay: Mice were injected with heparin and 500,000 B16F1 cells using the protocol described for the carcinoma metastasis assay. […] Lung weights were determined by removing the lungs from formalin, briefly setting them on filter paper to remove excess liquid, and then weighing them on a Sartorius analytical scale.
# Heparin Inhibition of Melanoma Metastasis is Also Dependent on Selectin-Inhibitory Activity. […] Seventeen days following injection, the lungs were excised and evaluated for the presence of metastatic foci. […]
# [1] = Plasma anti-Xa levels after subcutaneous heparin dosing; type: in vivo; conditions: mice
# Protocol: Anti-Xa levels were measured in plasma from multiple mice, 30 min after each mouse received a single “1×” or “3×” subcutaneous dose of various heparins. Each open circle represents one mouse and horizontal bars represent mean values.
# Titrating Heparin Dosage via Plasma Anti-Xa Levels: Mice were injected subcutaneously with 100 ul of UFH, TINZ, or FOND diluted in PBS, at various final concentrations. Thirty minutes later, blood was collected by cardiac puncture into 1 cc syringe containing 30 ul 10 mM EDTA. Samples were centrifuged twice at 2,000 rcf at 24° C. to collect the plasma, which was stored at −80° C. until analysis for anti-Xa activity. […] The resulting chromophore was measured at 405 nm. Plasma heparin levels were calculated in anti-Xa units/ml by comparing against a standard curve of heparin-spiked mouse plasma samples. Standards and samples were analyzed in triplicate. […]
# Pharmacokinetic Studies in Mice to Normalize Heparin Dosing. […] Therapeutic levels for patients treated with heparin for venous thromboembolism are ˜1 anti-factor Xa unit/ml for LMWHs, typically measured at 3-4 hours after injection. […] Plasma anti-Xa levels were analyzed 30 minutes after subcutaneous delivery, which is when the tumor cells would be injected into the vasculature in the planned metastasis experiments. […] Single heparin doses were increased from “1×” to “3×” dosing, and analyzed the anti-Xa levels (FIG. 2B). […]
# [2] = incorporated into liposomes; cited from earlier work
# tumor cells = conditions: cited from earlier work
# [3] = hirudin 10 mg/kg, at the time of tumor cell injection; almost all above limits of detection; cited from earlier work
compound,measurement,setting,value
"CO[C@H]1O[C@H](COS(=O)(=O)O)[C@@H](O[C@@H]2O[C@@H](C(=O)O)[C@@H](O[C@H]3O[C@H](COS(=O)(=O)O)[C@@H](O[C@@H]4O[C@H](C(=O)O)[C@@H](O[C@H]5O[C@H](COS(=O)(=O)O)[C@@H](O)[C@H](O)[C@H]5NS(=O)(=O)O)[C@H](O)[C@H]4O)[C@H](OS(=O)(=O)O)[C@H]3NS(=O)(=O)O)[C@H](O)[C@H]2OS(=O)(=O)O)[C@H](O)[C@H]1NS(=O)(=O)O [FOND, Fondaparinux]",metastasis (lung weight),B16F1 cells,no effect
same,mean plasma anti-Xa level,"[1]; 30 min after single subcutaneous 1× dose, range meant: therapeutic ~1 anti-factor Xa unit/ml",within this range
same,plasma anti-Xa level,[1]; 30 min after single subcutaneous 3× dose,at or above the accepted range for clinical anticoagulation
"CCCCCCCCCCCCCCCC(=O)OCn1ccnc1 [PMI, 1-(palmitoyloxymethyl)imidazole]",apparent pKa,[2],5.12
hirudin,pulmonary arrest of tumor cells,tumor cells; hirudin 10 mg/kg twenty minutes prior to tumor cell injection,decreased pulmonary arrest of tumor cells
same,formation of metastatic foci,"tumor cells; hirudin 20 mg/kg before, 4 h after, then every other day for 10 days, i.v. tumor cells",significant decrease in formation of metastatic foci
same,clotting time in activated partial thromboplastin time test,[3],> 300 s
